One data set concerns cells. Put plainly: Chemosensitizing by redox clamping agent co-administered with anti-cancer agent (FIG. 2). In kind it is cell-based. From the text: The present invention further provides a method of reducing the effective dose of an anti-cancer agent necessary to be effective against cancer comprising administering a redox clamping agent in conjunction with an anti-cancer agent. It is preferred that the redox clamping agent is Mesna or DMSA. Redox clamping agents have the ability to maintain cells in a selected redox state. […] Redox clamping agents are useful in enhancing the therapeutic activity of chemotherapeutic agents such as butyrate that are dependent upon the redox state of the cell. Redox clamping agents are further useful in controlling hyperproliferation of cells and conditions associated with abnormal fluctuations in the redox state of cells. In one aspect, this invention provides a method of treating cancerous tumors comprising administering an effective dose of an anti-cancer agent in conjunction with a redox clamping agent, wherein the redox clamping agent acts as a chemoenhancer or a chemosensitizer. […] The administration of Mesna in conjunction with an anti-cancer agent may be as separate compounds or in a composition formulated and titrated to a dose and in a concentration that would achieve the optimal therapeutic dose of the anti-cancer agent providing a higher tumor cell kill with a lower dose of the anti-cancer agent than the typical therapeutic dose administered to a patient. […]

The test system of the next data set is H4 Rat Hepatoma cells. In words: Hydrogen peroxide stress in H4 Rat Hepatoma cells, antioxidant levels. The note with it: 100 uM hydrogen peroxide for two hours, medium replaced, determined after 24 hours. Type of data set: cell-based. As for the experimental part:
To further exemplify the redox clamping properties of Mesna, stress was induced in H4 Rat Hepatoma cells by treatment with 100 uM hydrogen peroxide for two hours and then the medium was removed and replaced with an anti-cancer agent. The cellular viability, as well as glutathione and metallothionein levels were determined after 24 hours in culture. […] The inhibition of stress induced upswing in antioxidant levels is characteristic of redox clamping agents.
(§1) In all of the experiments associated with the investigation of Mesna as a redox clamping agent, as a stand-alone anticancer agent as well as a chemosensitizer, the cell culture medium used was Swim's S-77 medium containing 12 uM cystine, instead of conventional levels of this amino acid (i.e., 50 uM). All other components of the medium were maintained at conventional concentrations. […] The ability of cystine to supply cells with cysteine, which then function as a precursor amino acid for glutathione synthesis, is thought to be responsible for the abnormally high basal levels of glutathione in cultured tumor cell lines.

The subject of a further data set is human tumor cell lines. In words: Growth inhibition of human tumor cell lines in culture. In kind it is cell-based.
Description: The present invention provides a method of treating lymphoma, ovarian cancer, colorectal cancer, or gastric cancer comprising administering an effective amount of Mesna to a patient with lymphoma, ovarian cancer, colorectal cancer or gastric cancer. Mesna inhibits the growth of several human tumor cell lines in culture, and there are no strict relationships between the histopathological origin of the cell lines and the sensitivity of the cell lines to Mesna. […] It is further preferred that the patient be administered Mesna for a seven to ten day period. The doses may be cycled. The actual dose will be dependent on the size, type and location of the tumor as well as the overall status of the patient. It is preferred that high concentrations of Mesna be administered intravenously to achieve clamping initially, with further administration of oral doses to maintain the clamped state.
Cancer cell lines were growth inhibited when Mesna was administered on several consecutive days. Mesna has shown good activity in preventing the urotoxicity of oxazaphosphorine compound.
as §1

The subject of data set [1] is metastatic and/or relapsed tumors refractory to conventional therapy. Put plainly: Clinical study of oral Mesna as single agent in refractory cancer patients. In kind it is in vivo, human. As to the method:
From December 1996 to March 1998 a study was performed on 14 ambulatory patients with metastatic and/or relapsed tumors refractory to conventional therapy. Eligibility criteria included histologically-confirmed advanced cancer, patients age was greater than 18 years, with a life expectancy no less than two months. The patients had not undergone major surgery within 2 weeks, or radiotherapy and/or chemotherapy within one month of the study. […] Exclusion criteria included active uncontrolled infection, pregnancy, lactation and any other co-existing medical problems severe enough to prevent full compliance with the study. Objectively measurable disease in the patients was required. All patients gave informed written consent before treatment. 600 mg/m^2 of Mesna was given by oral route four times a day, masked in orange juice for 10 consecutive days. Cycles were repeated every 15 days. No simultaneous chemotherapy and or radiotherapy and no other supportive care was given. The main objective of the study was to determine the anti-tumoral activity and toxicity of Mesna for heavily and or refractory pretreated cancer patients. […] The patients were all previously treated with between two and four different chemotherapy regimens. Mesna was administered as a single agent to all of the patients in the study. The toxic effects of Mesna and number of nodes were assessed during the first cycle of Mesna administration. […] For colorectal cancer a greater than 50% reduction of nodular lesions metastasized to liver was registered, during the second schedule of therapy. For gastric cancer a greater than 50% reduction of a subcutaneous nodule was measured during the second course of Mesna treatment.

For data set [2] the following is noted: within a few minutes after administration; cited from earlier work.
For data set [3] the following is noted: even in very high dose, 1000 mg/kg; cited from earlier work.
In another data set the test system is human LNCaP cells. Put plainly: Two-step arsenic then Mesna treatment, apoptosis and glutathione in LNCaP cells. Type of data set: cell-based. As for the experimental part:
Human LNCaP cells, treated with 100 uM arsenic for 2 hours then washed and re-fed with normal medium, develop an elevation in cellular glutathione levels over a 24-hour period. Since exogenous antioxidants are known to be potent inhibitors of apoptotic mechanism, it is believed that internally-produced antioxidants such as glutathione function in a similar manner. […] Although Mesna increases apoptosis alone, the low concentrations of Mesna utilized in this two-step treatment protocol increased apoptosis minimally i.e., to 11 percent from a background of 3 to 5 percent in untreated cells.
as §1

Setting [4] is: 100 uM arsenic 2 hours, washed, then medium containing 100 uM Mesna.

With `CCCC(=O)O` [Butyrate], in the data set on cells (butyrate alone), the “concentration of butyrate that induces apoptosis” value was “greater than 3 mM”. For the same molecule, in the data set on cells (in the presence of a redox clamping agent), the “concentration of butyrate giving an effective kill” value is reported as no less than 0.5 mM.
Regarding `O=C(O)[C@@H](S)[C@@H](S)C(=O)O` [DMSA], in the data set with H4 Rat Hepatoma cells, the “stress-induced upswings in antioxidant levels (glutathione, metallothionein)” value is “oppose stress-induced upswings in antioxidant levels”.
As for `O=S(=O)([O-])CCSSCCS(=O)(=O)[O-].[Na+].[Na+]` [Dimesna, Disodium-2,2′-dithiobisethane sulfonate], in the data set with human tumor cell lines, the “interference with the growth inhibitory activity of Mesna” value was “did not interfere”.
With `O=S(=O)([O-])CCS.[Na+]` [Mesna, Sodium-2-mercaptoethane sulphonate], the “reduction of a subcutaneous nodule, gastric cancer” value in data set [1] (600 mg/m^2 oral four times a day, 10 days, second course) is “greater than 50%”. For the same molecule, in data set [1] (600 mg/m^2 oral four times a day, 10 days, second schedule of therapy), the “reduction of nodular lesions metastasized to liver, colorectal cancer” value is on record as “greater than 50%”. Besides, the objective response entry in data set [1] (lung cancer, soft tissue sarcoma, skin metastases of unknown origin, bladder cancer, melanoma, cancer of the cervix) is reported as “No objective responses”. Besides, in data set [1] (two patients, 600 mg/m^2 oral four times a day, 10 days, second and third course), the “clinical response, ovarian cancer” value is “reduced ascites and pain”. Further, the “fraction of administered dose transformed into Mesna disulphide” value in data set [2] is “more than 90%”. Besides, in data set [3], the “pharmacological and toxicological character” value is given as “relatively inert”. Further, the “stress-induced upswings in antioxidant levels (glutathione, metallothionein)” value in the data set with H4 Rat Hepatoma cells was “oppose stress-induced upswings in antioxidant levels”. Also, the “incorporation of 3H-thymidine, proline and uridine” value in the data set on human tumor cell lines is given as “inhibited”. In addition, the “growth of human tumor cell lines in culture” value in the data set with human tumor cell lines (lymphoma, ovarian, colorectal, gastric cancer lines, administered on several consecutive days) was “inhibits growth”. Further, in the data set with human LNCaP cells (setting [4]), the “elevation in glutathione levels” value is given as “dramatically diminished” and the “fraction of apoptotic cells compared to arsenic alone” value is “increased more than two-fold”. Besides, the apoptosis in the data set with human LNCaP cells (Mesna alone at the low concentration of the two-step protocol, background 3 to 5 percent in untreated cells) came out at 11%.
Consider `[AsH3]` [arsenic], for which the “apoptosis of the cells” value in the data set on human LNCaP cells (100 uM arsenic for 2 hours, washed, re-fed with normal medium) is 28%.

(Values after patent US20060111284A1, “Method for treating cancer” (priority 2002, published 2006).)
